From PubChem BioAssay AID1259407 (Chemical Carcinogenesis Research Information System (CCRIS), 2018)
Calls of active or inactive are those of the source. How the calls were made is not given here.

Test system: CCRIS mutagenicity, Ames/micronucleus/aberration tests
Experiment: CCRIS mutagenicity studies
[1] = Test System: AMES SALMONELLA TYPHIMURIUM, Strain/Indicator: TA100, Metabolic Activation: NONE, Method: PREINCUBATION
[2] = Test System: AMES SALMONELLA TYPHIMURIUM, Strain/Indicator: TA1535, Metabolic Activation: NONE, Method: STANDARD PLATE
[3] = Test System: AMES SALMONELLA TYPHIMURIUM, Strain/Indicator: TA98, Metabolic Activation: NONE, Method: STANDARD PLATE
[4] = Test System: AMES SALMONELLA TYPHIMURIUM, Strain/Indicator: TA98, Metabolic Activation: RAT, LIVER, S-9, AROCLOR 1254, Method: STANDARD PLATE
[5] = Test System: AMES SALMONELLA TYPHIMURIUM, Strain/Indicator: TA100, Metabolic Activation: NONE, Method: STANDARD PLATE
[6] = Test System: AMES SALMONELLA TYPHIMURIUM, Strain/Indicator: TA100, Metabolic Activation: RAT, LIVER, S-9, AROCLOR 1254, Method: STANDARD PLATE

ClC(Cl)c1ccccc1
mutagenic call (Test System: AMES SALMONELLA TYPHIMURIUM, Strain/Indicator: TA98, Metabolic Activation: HAMSTER, LIVER, S-9, AROCLOR 1254 (30%), Method: PREINCUBATION): inactive; negative
mutagenic call (Test System: AMES SALMONELLA TYPHIMURIUM, Strain/Indicator: TA98, Metabolic Activation: NONE, Method: PREINCUBATION): active; positive
mutagenic call (Test System: AMES SALMONELLA TYPHIMURIUM, Strain/Indicator: TA98, Metabolic Activation: RAT, LIVER, S-9, AROCLOR 1254 (30%), Method: PREINCUBATION): active; positive
mutagenic call (Test System: AMES SALMONELLA TYPHIMURIUM, Strain/Indicator: TA100, Metabolic Activation: HAMSTER, LIVER, S-9, AROCLOR 1254 (30%), Method: PREINCUBATION): active; positive
mutagenic call [1]: active; positive
mutagenic call (Test System: AMES SALMONELLA TYPHIMURIUM, Strain/Indicator: TA100, Metabolic Activation: RAT, LIVER, S-9, AROCLOR 1254 (30%), Method: PREINCUBATION): active; positive
mutagenic call (Test System: AMES SALMONELLA TYPHIMURIUM, Strain/Indicator: TA100, Metabolic Activation: RAT, LIVER, S-9, AROCLOR 1254, Method: PREINCUBATION): active; positive

CN(C=O)N=O
mutagenic call [2]: active; positive
mutagenic call (Test System: E. COLI, Strain/Indicator: WU3610, Metabolic Activation: NONE, Method: SUSPENSION/PLATE): active; positive

Nc1cc([N+](=O)[O-])cc([N+](=O)[O-])c1C(=O)O
mutagenic call (End Point: In vitro chromosomal aberrations, Test System: V79 Chinese hamster fibroblasts, Metabolic Activation: None): inactive; negative
mutagenic call (End Point: In vitro micronucleus, Test System: HepG2 human hepatoma cells, Metabolic Activation: None): active; positive
mutagenic call (Test System: Ames Salmonella typhimurium, Strain/Indicator: TA98, Metabolic Activation: None, Method: Standard plate): active; positive
mutagenic call (Test System: Ames Salmonella typhimurium, Strain/Indicator: TA98, Metabolic Activation: Rat, Liver, S-9, Method: Standard plate): active; positive
mutagenic call (Test System: Ames Salmonella typhimurium, Strain/Indicator: TA98NR, Metabolic Activation: None, Method: Standard plate): active; positive
mutagenic call (Test System: Ames Salmonella typhimurium, Strain/Indicator: TA100, Metabolic Activation: None, Method: Standard plate): inactive; negative
mutagenic call (Test System: Ames Salmonella typhimurium, Strain/Indicator: TA100, Metabolic Activation: Rat, Liver, S-9, Method: Standard plate): inactive; negative

C[C@@H](O)[C@H](N)C(=O)O
mutagenic call (Test System: AMES SALMONELLA TYPHIMURIUM, Strain/Indicator: TA98, Metabolic Activation: RAT LIVER S-9, CHLOROPHENE, Method: STANDARD PLATE (COMPOUND HEATED AT 250 DEGREES CELSIUS FOR 20 MIN)): active; positive

BrCC(Br)c1ccccc1 (centres undefined)
mutagenic call (Test System: AMES SALMONELLA TYPHIMURIUM, Strain/Indicator: TA100/NG-57, Metabolic Activation: CELL PRETREATMENT WITH GLUTATHIONE, Method: PREINCUBATION): active; positive
mutagenic call (Test System: AMES SALMONELLA TYPHIMURIUM, Strain/Indicator: TA100/NG-57, Metabolic Activation: NONE, Method: PREINCUBATION): active; positive
mutagenic call (Test System: AMES SALMONELLA TYPHIMURIUM, Strain/Indicator: TA100, Metabolic Activation: CELL PRETREATMENT WITH GLUTATHIONE, Method: PREINCUBATION): active; positive
mutagenic call [1]: active; positive
mutagenic call (Test System: AMES SALMONELLA TYPHIMURIUM, Strain/Indicator: TA100, Metabolic Activation: NONE, Method: SPOT TEST): active; positive

O=[N+]([O-])c1cc2c(cc3ccc4cccc5ccc2c3c45)o1
mutagenic call (Test System: AMES SALMONELLA TYPHIMURIUM, Strain/Indicator: TA98(NR), Metabolic Activation: NONE, Method: STANDARD PLATE): active; positive
mutagenic call (Test System: AMES SALMONELLA TYPHIMURIUM, Strain/Indicator: TA98(NR), Metabolic Activation: RAT, LIVER, S-9, AROCLOR 1254, Method: STANDARD PLATE): active; positive
mutagenic call [3]: active; positive
mutagenic call [4]: active; positive

O=[N+]([O-])c1ccc2c(Cl)nsc2c1
mutagenic call [3]: active; positive

O=C1Nc2ccc([N+](=O)[O-])cc2C1=O
mutagenic call (Test System: AMES SALMONELLA TYPHIMURIUM, Strain/Indicator: TA98, Metabolic Activation: HAMSTER, LIVER, S-9, AROCLOR 1254, Method: STANDARD PLATE): active; positive
mutagenic call [3]: active; positive
mutagenic call [4]: active; positive
mutagenic call (Test System: AMES SALMONELLA TYPHIMURIUM, Strain/Indicator: TA100, Metabolic Activation: HAMSTER, LIVER, S-9, AROCLOR 1254, Method: STANDARD PLATE): active; positive
mutagenic call [5]: active; positive
mutagenic call [6]: active; positive
mutagenic call (Test System: MOUSE LYMPHOMA, Strain/Indicator: L5178Y (TK+/TK-), Metabolic Activation: NONE, Method: SUSPENSION/PLATE): active; positive. reevaluation of results: positive
mutagenic call (Test System: MOUSE LYMPHOMA, Strain/Indicator: L5178Y (TK+/TK-), Metabolic Activation: RAT, LIVER, S-9, AROCLOR 1254, Method: SUSPENSION/PLATE): active; positive. reevaluation of results: equivocal

Cc1ccc2c(c1[N+](=O)[O-])C(=O)c1ccccc1C2=O
mutagenic call [3]: active; positive
mutagenic call [4]: active; positive
mutagenic call [6]: active; positive
mutagenic call [2]: inactive; negative
mutagenic call (Test System: AMES SALMONELLA TYPHIMURIUM, Strain/Indicator: TA1537, Metabolic Activation: RAT, LIVER, S-9, AROCLOR 1254, Method: STANDARD PLATE): active; positive
mutagenic call (Test System: AMES SALMONELLA TYPHIMURIUM, Strain/Indicator: TA1538, Metabolic Activation: NONE, Method: STANDARD PLATE): active; positive

CCOC(Cl)CCl (centres undefined)
mutagenic call (End Point: IN VITRO CHROMOSOMAL ABERRATIONS, Test System: CHL CELLS, Metabolic Activation: NONE): active; positive (structural and ploidy changes)
mutagenic call (End Point: IN VITRO CHROMOSOMAL ABERRATIONS, Test System: CHL CELLS, Metabolic Activation: RAT, LIVER, S-9, SODIUM PHENOBARBITAL AND 5,6-BENZOFLAVONE): active; positive (structural changes)

c1ccc2c(OCC3CO3)cccc2c1 (centres undefined)
mutagenic call [5]: active; positive
mutagenic call (Test System: AMES SALMONELLA TYPHIMURIUM, Strain/Indicator: TA104, Metabolic Activation: NONE, Method: STANDARD PLATE): active; positive
mutagenic call [2]: active; positive
mutagenic call (Test System: AMES SALMONELLA TYPHIMURIUM, Strain/Indicator: TA4001, Metabolic Activation: NONE, Method: STANDARD PLATE): active; positive
mutagenic call (Test System: AMES SALMONELLA TYPHIMURIUM, Strain/Indicator: TA4006, Metabolic Activation: NONE, Method: STANDARD PLATE): active; positive

CCCCN(C[C@H](CO)Cc1ccccc1)N=O
mutagenic call [1]: inactive; negative
mutagenic call (Test System: AMES SALMONELLA TYPHIMURIUM, Strain/Indicator: TA100, Metabolic Activation: RAT, LIVER, S-9, PCB, Method: PREINCUBATION): active; positive

Oc1ccc2cc3ccc4cccc5ccc(c2c1)c3c45
mutagenic call (Test System: AMES SALMONELLA TYPHIMURIUM, Strain/Indicator: TA98, Metabolic Activation: RAT, LIVER, 3-METHYLCHOLANTHRENE, Method: LIQUID SUSPENSION): active; positive
mutagenic call (Test System: AMES SALMONELLA TYPHIMURIUM, Strain/Indicator: TA1538, Metabolic Activation: RAT, LIVER, 3-METHYLCHOLANTHRENE, Method: LIQUID SUSPENSION): active; positive
mutagenic call (Test System: CHINESE HAMSTER V-79, Strain/Indicator: V-79/OUABAIN, Metabolic Activation: NONE, Method: STANDARD PLATE): active; positive

[O]=[Mg]
mutagenic call (Test System: AMES SALMONELLA TYPHIMURIUM, Strain/Indicator: TA97, Metabolic Activation: NONE, Method: PREINCUBATION): inactive; negative
mutagenic call (Test System: AMES SALMONELLA TYPHIMURIUM, Strain/Indicator: TA97, Metabolic Activation: S-9, Method: PREINCUBATION): inactive; negative
mutagenic call [1]: inactive; negative
mutagenic call (Test System: AMES SALMONELLA TYPHIMURIUM, Strain/Indicator: TA100, Metabolic Activation: RAT, LIVER, S-9, Method: PREINCUBATION): inactive; negative
mutagenic call (Test System: AMES SALMONELLA TYPHIMURIUM, Strain/Indicator: TA102, Metabolic Activation: NONE, Method: PREINCUBATION): inactive; negative
mutagenic call (Test System: AMES SALMONELLA TYPHIMURIUM, Strain/Indicator: TA102, Metabolic Activation: S-9, Method: PREINCUBATION): inactive; negative
